Assay results as given in US20130196954A1, “METHOD OF TREATING ACNE” (priority 2010, published 2013).

Experiments:
moderate or severe acne = experiment: Phase 2 randomized, double-blind, placebo-controlled clinical study, efficacy; type: in vivo, human; details: ITT; for Reduction from baseline in inflammatory lesion count / Success Rate (IGA clear or almost clear): oral once daily
Experimental: As used herein, “success rate” means the percentage of subjects who achieve a score of “clear” or “almost clear” by Investigator's Global Assessment (IGA) (Inflammatory): A phase 2, multi-center, randomized, double-blind, parallel group, placebo-controlled study was conducted. The treatments were (1) 40 mg doxycycline tablet containing 30 mg IR and 10 mg DR (CD2575/101); (2) doxycycline 100 mg capsules; and (3) placebos (double dummy), which were administered orally once daily. Patients having moderate or severe acne (25 to 75 inflammatory lesions on the face (including the nose) were subjects in the study. Total 660 subjects (220/group) were divided in a 1:1:1 randomization for the three treatments. The treatments lasted 16 weeks. The following were measured for efficacy studies: change from baseline to week 16 (LOCF, ITT) in inflammatory lesion counts (primary endpoint); success rate at week 16 (LOCF, ITT); percent change in inflammatory lesion counts from baseline to week 16 (LOCF, ITT); percent change in total lesion counts from baseline to week 16 (LOCF, ITT); change from baseline to week 16 (LOCF, ITT) in non-inflammatory lesion counts; global assessment for inflammatory lesions of truncal acne at baseline, week 12, and week 16/ET visit, etc. The investigator evaluated the subject's acne at every study visit using the Investigator's Global Assessment (Inflammatory) scale as that described above. The IGA scale in this study focused on inflammatory lesions as the mode of study drug action in acne vulgaris is primarily anti-inflammatory. Onset of efficacy was to be determined for the change in inflammatory lesions and for the success rate, by analyzing time points earlier than week 16

[1] = Phase 2 clinical study, safety (adverse events); type: in vivo, human
Experimental: A phase 2, multi-center, randomized, double-blind, parallel group, placebo-controlled study was conducted. The treatments were (1) 40 mg doxycycline tablet containing 30 mg IR and 10 mg DR (CD2575/101); (2) doxycycline 100 mg capsules; and (3) placebos (double dummy), which were administered orally once daily.
Patients having moderate or severe acne (25 to 75 inflammatory lesions on the face (including the nose) were subjects in the study. Total 660 subjects (220/group) were divided in a 1:1:1 randomization for the three treatments. The treatments lasted 16 weeks.
The safety studies included standard safety reporting. Adverse events of special interest included phototoxicity; pseudotumor cerebri; and pseudomembranous colitis. Vital signs were observed by the investigator at each visit. Lab tests were conducted at 0, 8 & 16 weeks.

[2] = N = 216 (40 mg), N = 223 (100 mg)

## C[C@H]1c2cccc(O)c2C(=O)C2=C(O)[C@]3(O)C(=O)C(C(N)=O)=C(O)[C@@H](N(C)C)[C@@H]3[C@@H](O)[C@@H]21 [Doxycycline 100 mg, doxycycline]
Moderate or severe acne; Week 12 (LOCF)
  Median % Change in Inflammatory Lesion Count: −46.7%
  Median % change in Total Lesion Count: −30.6%
  Reduction in inflammatory lesion count, delta vs placebo: 0.3
  Success Rate, delta vs placebo: −1.4
  Reduction from baseline in inflammatory lesion count: 12.2 (0.604)
  Success Rate (IGA clear or almost clear): 5.4% (0.536)
Moderate or severe acne; Week 16 (LOCF)
  Median % Change in Inflammatory Lesion Count: −47.3%
  Median % change in Total Lesion Count: −35.9%
  Reduction in inflammatory lesion count, delta vs placebo: 0.3
  Success Rate, delta vs placebo: 6.1
  Reduction from baseline in inflammatory lesion count: 12.9 (0.595)
  Success Rate (IGA clear or almost clear): 13.8% (0.035)
[1]; 16 weeks once daily oral
  drug related AEs (nausea, vomiting & headaches): 38
[1]; 16 weeks once daily oral, N = 216 (40 mg), N = 223 (100 mg)
  Total Number of AE(s): 50
[1]; [2]
  Abdominal discomfort, number of subjects: 4
  Abdominal discomfort, percent of subjects: (1.8%)
  Dizziness, number of subjects: 1
  Dizziness, percent of subjects: (0.4%)
  Headache, number of subjects: 6
  Headache, percent of subjects: (2.7%)
  Nausea, number of subjects: 12
  Nausea, percent of subjects: (5.4%)
  Tinnitus, number of subjects: 0
  Total Number of Subjects with AE(s), number: 38
  Total Number of Subjects with AE(s), percent: (17.0%)
  Urticaria, number of subjects: 2
  Urticaria, percent of subjects: (0.9%)
  Vomiting, number of subjects: 14
  Vomiting, percent of subjects: (6.3%)
  Vulvovaginal mycotic infection, number of subjects: 1
  Vulvovaginal mycotic infection, percent of subjects: (0.4%)
